What all share (design): expressed in transfected cells
The target of experiment [1] is α5β3γ2 GABAA/BzR (Homo sapiens, UniProt P18507+P31644). Briefly: Competition binding to HEK cell membranes, α5β3γ2. The conditions noted are these: read-out: Ki α5.
For experiment [2], the target named is α1β3γ2 GABAA/BzR (Homo sapiens, UniProt P14867+P18507). Briefly: Competition binding to HEK cell membranes, α1β3γ2.
For experiment [3], the target named is α6β3γ2 GABAA/BzR (Homo sapiens, UniProt P18507+Q16445). Briefly: Competition binding to HEK cell membranes, α6β3γ2.
The target of experiment [4] is α2β3γ2 GABAA/BzR (Homo sapiens, UniProt P18507+P47869). Briefly: Competition binding to HEK cell membranes, α2β3γ2. The conditions noted are these: read-out: Ki α2.
The target in experiment [5] is α3β3γ2 GABAA/BzR (Homo sapiens, UniProt P18507+P34903). The experiment is described as follows: Competition binding to HEK cell membranes, α3β3γ2. The conditions noted are these: read-out: Ki α3.

Here are results for 36 compounds from PMC4657098, “A Review of the Updated Pharmacophore for the Alpha 5 GABA(A) Benzodiazepine Receptor Model” (International Journal of Medicinal Chemistry, 2015).

Molecules are shown by their SMILES. Like-named read-outs stand apart in the source and are kept apart here.

As for `O=[N+]([O-])c1ccc2[nH]c3cnc([N+](=O)[O-])cc3c2c1` [EDC-I-071], the Ki – broadly, the equilibrium dissociation constant of an inhibitor or competing ligand from its target – is 314 nM in experiment [1], 12.9 nM in experiment [2] (read-out: Ki α1), 5000 nM in experiment [3] (read-out: Ki α6) and 83.1 nM in experiment [4].

Turning to `Cc1nnc2n1-c1ccc(Br)cc1C(c1ccccc1)=NC2` [XLi268], the inhibition constant Ki stood at 0.624 nM in experiment [1], 2.81 nM in experiment [2] (read-out: Ki α1) and 0.686 nM in experiment [4].

`C[Si](C)(C)C#Cc1ccc2c(c1)C(c1ccccc1F)=NCC(=O)N2` [JYI-55]: the Ki was 24.8 nM in experiment [1], 0.504 nM in experiment [5] and 41.4 nM in experiment [2] (read-out: Ki α1).

`C#Cc1ccc2c(c1)C(=O)N1CCC[C@H]1c1c(C(=O)OCC(F)(F)F)ncn1-2` [JYI-15]: the Ki is 4.8 nM in experiment [1], 205 nM in experiment [2] (read-out: Ki α1), 22 nM in experiment [3] (read-out: Ki α6) and 812 nM in experiment [4].

For `CCOC(=O)c1ncn2c1CN=C(c1ccccc1F)c1cc(-c3ccco3)ccc1-2` [JYI-48], the Ki came out at 31.3 nM in experiment [1], 12.8 nM in experiment [5], 75.6 nM in experiment [2] (read-out: Ki α1) and 90.7 nM in experiment [4].

For `C#Cc1ccc2c(c1)C(c1ccccc1)=NCC(NC)=N2` [Hz148], the Ki in experiment [1] worked out at 256 nM; in experiment [2] (read-out: Ki α1) it was 11 nM; in experiment [3] (read-out: Ki α6), 5000 nM; in experiment [4], 5000 nM.

Turning to `O=C1C2C=Nc3ccccc3C2=NN1c1ccc(Cl)cc1` (stereo not drawn) [CGS9896, reference compound], the Ki in experiment [2] (Ki α1) was determined as 0.28 nM; in experiment [3] (Ki α6), 181 nM.

`COc1ccc(-n2nc3c4ccccc4[nH]cc-3c2=O)cc1` [CGS9895, reference compound]: the Ki worked out at 0.21 nM in experiment [2] (read-out: Ki α1) and 9.3 nM in experiment [3] (read-out: Ki α6).

`C#Cc1ccc2c(c1)C(c1ccccc1F)=NCc1c(C(=O)OCC(F)(F)F)ncn1-2` [JYI-59 (C22H13N3O2F4)]: the Ki worked out at 5000 nM in experiment [3] (read-out: Ki α6) and 2.6 nM in experiment [4].

`O=C1CN=C(c2ccccc2F)c2cc(Br)ccc2N1` [JYI-42]: the Ki was 0.256 nM in experiment [1], 0.278 nM in experiment [5], 0.257 nM in experiment [2] (read-out: Ki α1) and 0.146 nM in experiment [4].

With `CC(C)(C)OC(=O)c1ncn2c1[C@@H]1CCCN1C(=O)c1cc(-c3cccs3)ccc1-2` [JYI-19], the Ki in experiment [1] was 34 nM; in experiment [2] (read-out: Ki α1), 2.18 nM; in experiment [3] (read-out: Ki α6) it was 12.7 nM; in experiment [4] it was 205 nM.

Regarding `CCOC(=O)c1ncn2c1CN=C(c1ccccc1F)c1cc(Br)ccc1-2` [JYI-32], the Ki in experiment [1] amounted to 2.92 nM; in experiment [2] (read-out: Ki α1) it was 3.07 nM; in experiment [3] (read-out: Ki α6) it was 52.2 nM; in experiment [4], 4.96 nM.

In the case of `O=C(OCC(F)(F)F)c1ncn2c1C1CCCN1C(=O)c1cc(-c3ccco3)ccc1-2` (stereo not drawn) [JYI-13], the Ki amounted to 16 nM in experiment [1], 5000 nM in experiment [2] (read-out: Ki α1), 8.38 nM in experiment [3] (read-out: Ki α6) and 63.7 nM in experiment [4].

With `S=C=Nc1ccc2[nH]c3cnc(N=C=S)cc3c2c1` [EDC-I-093], the Ki in experiment [1] was 2910 nM; in experiment [2] (read-out: Ki α1), 13.6 nM; in experiment [3] (read-out: Ki α6), 5000 nM; in experiment [4], 423 nM.

Take `C=Cc1ccc2c(c1)C(=O)N1CCC[C@H]1c1c(C(=O)OC(C)(C)C)ncn1-2` [JYI-04]: the Ki was determined as 0.51 nM in experiment [1], 28.3 nM in experiment [2] (read-out: Ki α1), 1.57 nM in experiment [3] (read-out: Ki α6) and 16 nM in experiment [4].

As for `C#Cc1ccc2c(c1)C(c1cccs1)=NCC(=O)N2C` [JC222], the results for the Ki in experiment [1], in experiment [2] (read-out: Ki α1) and in experiment [4] were 17.6 nM, 86.7 nM and 45.1 nM, respectively.

In the case of `O=C(OCC(F)(F)F)c1ncn2c1[C@@H]1CCCN1C(=O)c1ccccc1-2` [JYI-14], the Ki in experiment [1] was determined as 13 nM; in experiment [2] (read-out: Ki α1) it was 32 nM; in experiment [3] (read-out: Ki α6), 565 nM; in experiment [4], 25 nM.

Turning to `CN(C)C=C1N=C2CN=C(c3ccccc3)c3cc(Br)ccc3N2C1=O` [PS-1-34B], the Ki in experiment [5] is 3.93 nM; in experiment [4], 4.2 nM.

Regarding `CC(C)(C)OC(=O)c1cc2c(cn1)[nH]c1ccccc12` [SH-TSC-2], the Ki in experiment [1] was 69.3 nM; in experiment [5] it was 0.035 nM; in experiment [4], 0.0419 nM.

For the compound `C#Cc1ccc2c(c1)C(c1ccccc1F)=NCc1c(C(=O)NC)ncn1-2` [HJ-I-037], the Ki turned out to be 0.818 nM in experiment [1], 28.3 nM in experiment [5], 15.1 nM in experiment [2] (read-out: Ki α1) and 8.13 nM in experiment [4].

Consider `O=C(O)c1ncn2c1CN=C(c1ccccc1)c1cc(Br)ccc1-2` [DM-III-01], for which the Ki in experiment [1] amounted to 4.73 nM; in experiment [4], 12 nM.

Regarding `C#Cc1ccc2c(c1)C(c1ccccc1F)=NCc1nnc(C)n1-2` [JYI-70], the Ki in experiment [1] stood at 0.56 nM; in experiment [2] (read-out: Ki α1), 6.3 nM; in experiment [3] (read-out: Ki α6), 5000 nM; in experiment [4] it was 2.1 nM.

Regarding `C#Cc1ccc2c(c1)C(c1ccccc1Cl)=NCC(=O)N2C` [XLi352], the Ki in experiment [1] stood at 1.96 nM; in experiment [2] (read-out: Ki α1), 1.56 nM; in experiment [4], 0.991 nM.

Take `O=C(OCC(F)(F)F)c1ncn2c1C1CCCN1C(=O)c1cc(Br)ccc1-2` (stereo not drawn) [JYI-10]: the Ki was determined as 12.3 nM in experiment [1], 5000 nM in experiment [2] (read-out: Ki α1), 23 nM in experiment [3] (read-out: Ki α6) and 368 nM in experiment [4].

In experiment [3] (Ki α6), `C#Cc1ccc2c(c1)C(c1ccccc1F)=N[C@@H](C)c1c(C(=O)OCC)ncn1-2` [SH-O53-S-CH3-2′F] returned a Ki of 5000 nM.

Consider `Cc1nnc2n1-c1ccc(Br)cc1C(c1ccccc1F)=NC2` [JYI-57], for which the Ki came to 0.036 nM in experiment [1], 0.131 nM in experiment [5], 0.076 nM in experiment [2] (read-out: Ki α1) and 0.076 nM in experiment [4].

As to `O=C1CN=C(c2cccs2)c2cc(Br)ccc2N1` [JC184], the Ki was found to be 6.71 nM in experiment [1], 9.61 nM in experiment [2] (read-out: Ki α1) and 10.5 nM in experiment [4].

On to `C#Cc1ccc2[nH]c3cnc(C(=O)OC(C)(C)C)cc3c2c1` [WY-TSC-4], for which the Ki in experiment [1] was 51 nM; in experiment [5], 1.63 nM.

With `C[Si](C)(C)C#Cc1ccc2c(c1)C(=O)N1CCC[C@H]1c1c(C(=O)OCC(F)(F)F)ncn1-2` [JYI-11], the Ki in experiment [1] was 648 nM; in experiment [2] (read-out: Ki α1), 5000 nM; in experiment [3] (read-out: Ki α6), 3.97 nM; in experiment [4], 5000 nM.

Regarding `CN1CCN(C=C2N=C3CN=C(c4ccccc4)c4cc(Br)ccc4N3C2=O)CC1` [PS-1-35], the Ki was found to be 24.4 nM in experiment [5] and 16 nM in experiment [4].

Take `Cc1nnc2n1-c1ccc(C#C[Si](C)(C)C)cc1C(c1ccccc1F)=NC2` [JYI-72]: the inhibition constant (Ki) came to 11.5 nM in experiment [1], 48.5 nM in experiment [2] (read-out: Ki α1) and 18.5 nM in experiment [4].

On to `C#Cc1ccc2c(c1)C(=O)N1CCCC1c1c(C(=O)OC(C)(C)C)ncn1-2` (stereo not drawn) [JYI-03], for which the Ki in experiment [1] amounted to 0.954 nM; in experiment [2] (read-out: Ki α1), 185 nM; in experiment [3] (read-out: Ki α6), 3.34 nM; in experiment [4] it was 107 nM.

Regarding `O=C1CN=C(c2ccccc2Cl)c2cc(Br)ccc2N1` [DM-II-72], the inhibition constant (Ki) in experiment [1] amounted to 2.02 nM; in experiment [4] it was 1.37 nM.

In the case of `O=C(OCC(F)(F)F)c1ncn2c1CN=C(c1ccccc1F)c1cc(Br)ccc1-2` [JYI-49], the Ki was 6.7 nM in experiment [1], 1.87 nM in experiment [2] (read-out: Ki α1), 3390 nM in experiment [3] (read-out: Ki α6) and 2.38 nM in experiment [4].

As for `C=Cc1ccc2c(c1)C(=O)N1CCC[C@H]1c1c(C(=O)OCC(F)(F)F)ncn1-2` [JYI-12], the Ki in experiment [1] stood at 4.5 nM; in experiment [2] (read-out: Ki α1) it was 91 nM; in experiment [3] (read-out: Ki α6), 6.8 nM; in experiment [4] it was 39 nM.

For the compound `C#Cc1ccc2c(c1)C(c1cccs1)=NCC(=O)N2` [JC208], the Ki worked out at 5.04 nM in experiment [1], 22.4 nM in experiment [2] (read-out: Ki α1) and 18.9 nM in experiment [4].
